The results in this text go back to US8268747B2, “Safening penoxsulam herbicide injury in water-seeded, direct-seeded and transplanted paddy rice” (Dow AgroSciences, LLC., priority 2009, dated 2012).

Data set [1] relates to Echinochloa oryzoides (watergrass). The experiment in a line: % visual weed control in water-seeded rice, ECHOR. Type of data set: in vivo. To be noted: 13 days after seeding, 27 days after treatment. As to the method:
(§1) Pre-germinated rice was applied directly into a flooded rice paddy. The rice paddy was prepared as per normal cultural practices, by applying appropriate fertilizers, working and leveling the ground before flooding, with water flooded across the entire field to a depth of 1 to 5 inches prior to seeding with the pre-germinated rice seed.
(§2) Treatments consisted of penoxsulam and clomazone applied alone and in combination directly into the flooded rice paddy as granular formulated treatments. These treatments could also be applied as liquid applications directly into the water. Clomazone was applied the day of rice seeding, at 13 days after rice seeding, and in combination with penoxsulam at 13 days after rice seeding. Penoxsulam was applied alone and in combination with clomazone at 13 days after rice seeding.
(§3) Colby's equation was used to determine the herbicidal effects expected from the mixtures (Colby, S. R. 1967. Calculation of the synergistic and antagonistic response of herbicide combinations. Weeds 15:20-22.).
(§4) The following equation was used to calculate the expected activity of mixtures containing two active ingredients, A and B: Expected=A+B−(A×B/100)
(§5) A=observed efficacy of active ingredient A at the same concentration as used in the mixture.
(§6) B=observed efficacy of active ingredient B at the same concentration as used in the mixture.

Data set [2] concerns Cyperus difformis (smallflower umbrella sedge). The experiment in a line: % visual weed control in water-seeded rice, CYPDI. The data set is classed as in vivo. To be noted: 13 days after seeding, 27 days after treatment. As to the method:
as §1, §2, §3, §4, §5, §6

Data set [3] deals with Leptochloa fascicularis (sprangletop). The experiment in a line: % visual weed control in water-seeded rice, LEFFA. The data set is classed as in vivo. The conditions noted are these: 13 days after seeding, 27 days after treatment. As to the method:
as §1, §2, §3, §4, §5, §6

In data set [4] the test system is Oryza sativa 'M205' (rice). The conditions noted are these: in vivo. As to the method: (§7) Evaluation of Postemergence Herbicidal Safening in Water-Seeded Rice
as §1, §2, §3, §4, §5, §6

The test system of data set [5] is Oryza sativa 'M205' (rice). The data set is described as follows: Rice % stand reduction, postemergence safening in water-seeded rice. As to the method: as §7, §1, §2, §3, §4, §5, §6

Regarding `CC1(C)CON(Cc2ccccc2Cl)C1=O` [Clomazone, 2-[(2-chlorophenyl)methyl]-4,4-dimethyl-3-isoxazolidinone], the results for the “% Weed Control Ratings ECHOR (1) Obs” value in data set [1] (clomazone 224 g ai/ha alone), in data set [1] (clomazone 336 g ai/ha alone) and in data set [1] (clomazone 448 g ai/ha alone) were 93%, 96% and 97%, respectively. The “% Weed Control Ratings CYPDI (3) Obs” value is 73% in data set [2] (clomazone 224 g ai/ha alone), 88% in data set [2] (clomazone 336 g ai/ha alone) and 87% in data set [2] (clomazone 448 g ai/ha alone). For the same molecule, the entries for the “% Weed Control Ratings LEFFA (2) Obs” value in data set [3] (clomazone 224 g ai/ha alone), in data set [3] (clomazone 336 g ai/ha alone) and in data set [3] (clomazone 448 g ai/ha alone) were 98%, 99% and 99%, respectively. The “visual injury to rice (text summary of Table 1)” value in data set [4] is given as 0-3%. For the same molecule, the “effect on the rice stand (text summary of Table 2)” value in data set [5] (clomazone alone) is recorded as “negligible effect”. Also, the “Rice % Stand Reduction Ratings ORYSA (3) Exp” value in data set [5] (in vivo) came out at 3%. In addition, the “Rice % Stand Reduction Ratings ORYSA (3) Obs” value in data set [5] (in vivo) was determined as 3%.

For the molecule `COc1cnc(OC)n2nc(NS(=O)(=O)c3c(OCC(F)F)cccc3C(F)(F)F)nc12` [Penoxsulam, 2-(2,2-difluoroethoxy)-N-(5,8-dimethoxy[1,2,4]triazolo[1,5-c]pyrimidin-2-yl)-6-(trifluoromethyl)benzenesulfonamide], in data set [1] (penoxsulam 40 g ai/ha alone), the “% Weed Control Ratings ECHOR (1) Obs” value was 98%. The “% Weed Control Ratings CYPDI (3) Obs” value in data set [2] (penoxsulam 40 g ai/ha alone) was 99%. In addition, in data set [3] (penoxsulam 40 g ai/ha alone), the “% Weed Control Ratings LEFFA (2) Obs” value came to 74%. In data set [4], the “Rice % Visual Injury Ratings ORYSA (1) Obs” value turned out to be 12%, the “Rice % Visual Injury Ratings ORYSA (2) Obs” value came out at 9%, the “Rice % Visual Injury Ratings ORYSA (3) Obs” value is reported as 5% and the “injury to rice (text summary of Table 1)” value is on record as “slight injury”. In data set [5] (in vivo), the “Rice % Stand Reduction Ratings ORYSA (1) Exp” value is given as 27%, the “Rice % Stand Reduction Ratings ORYSA (1) Obs” value is recorded as 27%, the “Rice % Stand Reduction Ratings ORYSA (2) Exp” value stood at 33% and the “Rice % Stand Reduction Ratings ORYSA (2) Obs” value is given as 33%. In addition, in data set [5] (in vivo), the “Rice % Stand Reduction Ratings ORYSA (3) Exp” value is given as 33%, the “Rice % Stand Reduction Ratings ORYSA (3) Obs” value is reported as 33% and the “impact on the rice stand (text summary of Table 2)” value is reported as “slight negative impact”.
